The values below come from US9676760B2, “Fused heterocyclic compounds as ion channel modulators” (Gilead Sciences, Inc., priority 2011, dated 2017).

Common to all, as to assay type: cell-based
Data set [1] concerns the target T1, wild-type human cardiac sodium channel, hNav1.5 (Homo sapiens, UniProt Q14524). The data set is described as follows: Late INa screening assay (QPatch whole cell patch clamp, HEK293). A digest of the protocol: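 HEK293 stably expressing hNav1.5 without beta subunits, recorded at 23-25° C. Late current was induced by 10 μM tefluthrin. Cells were depolarized from −120 mV to −20 mV for 250 ms at 0.1 Hz. Compounds were tested at 1 μM in extracellular solution, with baseline taken in 0Na-ECF; output is percent block of late INa.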
Background: Patch clamp records ionic current or voltage across a cell membrane.

For data set [2], the target named is T2, hNav 1.1 sodium channel isoform (Homo sapiens, UniProt P35498).
T2 construct: expressed in transfected cells; host or cells: HEK293, transient transfection (Qiagen Superfect)
The data set is described as follows: hNav1.1 whole-cell voltage-clamp assay. The following applies: % Inhibition at 1 uM; use-dependent block, 10 Hz; read-out: NAV1.1* UDB-10HZ.

For data set [3], the target named is T3, hNav 1.2 sodium channel isoform (Homo sapiens, UniProt Q99250).
T3 construct: expressed in transfected cells
The data set is described as follows: hNav1.2 whole-cell voltage-clamp assay. To be noted: use-dependent block, 10 Hz, read-out: NAV1.2* UDB-10HZ. The protocol:
Wild-type (WT) cDNA stably transfected in Chinese hamster ovary (CHO) cells is used to record INa. Unless otherwise noted, all reagents are purchased from Sigma-Aldrich (St Louis, Mo., U.S.A.).
Whole-cell voltage-clamp recordings are used to measure the biophysical properties of WT. […] Cells are allowed to stabilize for 10 min after establishment of the whole-cell configuration before current is measured. Series resistance is compensated 90% to assure that the command potential is reached within microseconds with a voltage error<2 mV. Leak currents are subtracted by using an online P/4 procedure and all currents are low-pass Bessel filtered at 5 kHz and digitized at 50 kHz.
For clarity, representative ramp currents are low pass filtered off-line at 50 Hz. Specific voltage-clamp protocols assessing channel activation, fast inactivation and availability during repetitive stimulation are used. Results are presented as mean±SEM.
Tonic block of peak current is measured using a step to −10 mV (20 ms) from a holding potential of −120 mV (0.2 Hz). Use-dependent block of peak current is measured during pulse number 300 of a pulse train (−10 mV, 5 ms, 300 pulses, 10 Hz or 25 Hz) from a holding potential of −120 mV. Two sequential pulse train stimulations are averaged to obtain mean current traces for each recording condition, which are then used for offline subtraction and analysis.
For use-dependent studies, cells are stimulated with depolarizing pulse trains (−10 mV, 5 ms, 300 pulses, 10 and 25 Hz) from a holding potential of −120 mV. Currents are then normalized to the peak current recorded in response to the first pulse in each frequency train. For tonic block studies, peak current is evaluated in response to a 20 ms depolarization to −10 mV (0.2 Hz). […] Results are presented as mean±SEM.
A stock solution of 10 mM compound of Formula I is prepared in 0.1 M HCl or DMSO. […] The final DMSO concentration was kept at 0.1% in all solutions. Direct application of the perfusion solution to the clamped cell is achieved using the Perfusion Pencil system (Automate, Berkeley, Calif.). Direct cell perfusion is driven by gravity at a flow rate of 350 μL/min using a 250 micron tip. This system sequesters the clamped cell within a perfusion stream and enables complete solution exchange within 1 second. The clamped cell is perfused continuously starting immediately after establishing the whole-cell configuration. Control currents are measured during control solution perfusion.
Solutions are perfused for three minutes prior to current recordings to allow equilibrium (tonic) drug block. Tonic block of peak currents is measured from this steady-state condition. Three sequential current traces are averaged to obtain a mean current for each recording. The mean current traces are utilized for offline analysis. Use-dependent block of peak current is measured during pulse number 300 of the pulse train, (−10 mV, 5 ms, 300 pulses, 10 Hz) from a holding potential of −120 mV.

Data set [4] addresses T1, wild-type human cardiac sodium channel, hNav1.5. The experiment in a line: Peak INa screening assay (tonic and use-dependent block). To be noted: compound at 1 μM. The essentials:
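Whole-cell automated patch clamp (QPatch) at 23–25°C on HEK293 cells stably expressing hNav1.5 alpha subunit only, with CsF/CsCl pipette solution, pH 7.4. Compound at 1 μM in extracellular solution; bath Na+ could be cut to 20 mM with a nonpermeant cation. Tonic block measured at 0.1 Hz, use-dependent block at 3 Hz.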

The target of the next data set is hERG potassium channel (Homo sapiens, UniProt Q12809). The experiment in a line: hERG screening assay (PatchXpress, CHO cells). Details: hERG: unit not given here. The protocol:
Compounds were also tested for their effect to block the hERG K^+ channel.
Compounds were screened to test their activity in blocking the hERG potassium channel at AVIVA Biosciences (San Deigo, Calif., USA). The hERG channel is heterologously expressed in a CHO (Chinese Hamster Ovary) cell line. Cells were maintained with standard tissue culture procedures and stable channel expression was maintained with 500 μg/mL G418 in the culture medium. Cells were harvested for testing on the PatchXpress 7000A automated patch clamp with Accumax (Innovative Cell Technologies, San Diego, Calif.) to isolate single cells.
The following solutions were used for electrophysiological recordings. The external solution contained: 2 mM CaCl2; 2 mM MgCl2; 4 mM KCl; 150 mM NaCl; 10 mM Glucose; 10 mM HEPES (pH 7.4 with 1M NaOH; osmolarity, ˜310 mOsm).
hERG channels were activated when the voltage was first stepped to −50 mV for 300 ms from the −80 mV holding potential and then stepped to +20 mV for 5 seconds. At +20 mV the channels open and then largely inactivate, so the currents are relatively small. Upon returning to −50 mV from +20 mV, hERG currents transiently become much larger as inactivation is rapidly removed and then the channel closes. The first step to −50 mV for 300 ms was used as a baseline for measuring the peak amplitude during the step to −50 mV after channel activation. The peak tail current at −50 mV was measured both under control conditions and after addition of compound, each cell serving as its own control.
All compounds were prepared as 10 mM DMSO stocks in glass vials. Stock solutions were mixed by vigorous vortexing and sonication for about 2 minutes at room temperature. For testing, compounds were diluted in glass vials using an intermediate dilution step in pure DMSO and then further diluted to working concentrations in external solution. Dilutions were prepared no longer than 20 minutes before use.
For the electrophysiological recordings, after achieving the whole-cell configuration, cells were monitored for 90 seconds to assess stability and washed with external solution for 66 seconds. The voltage protocol described above was then applied to the cells every 12 seconds and throughout the whole procedure. Only cells with stable recording parameters and meeting specified health criteria were allowed to enter the compound addition procedure.
External solution containing 0.1% DMSO (vehicle) was applied to the cells first to establish the control peak current amplitude. After allowing the current to stabilize for 3 to 5 minutes, 1 μM and then 10 μM test compounds were applied. Each compound concentration was added 4 times and cells were kept in test solution until the effect of the compound reached steady state or for a maximum of 12 minutes. […] Washout in the external solution compartment was performed until the recovery of the current reached steady state.
A general note: hERG is a cardiac potassium channel; its block is linked to QT prolongation.

Setting [5] is: HEK293, % Inhibition at 1 uM, read-out: Late INa*.
Setting [6] is: HEK293, percent block of late INa, compound at 1 μM, 10 μM Tefluthrin, read-out: Late INa 1 μM.
Setting [7] is: tonic block of peak INa, 0.1 Hz, read-out: Peak TB 1 μM.
The mark [8] stands for this setting: use-dependent block of peak INa, 3 Hz, read-out: Peak UDB 1 μM.

Some results are limits rather than exact numbers.

T1 sequence (Q14524 whole entry): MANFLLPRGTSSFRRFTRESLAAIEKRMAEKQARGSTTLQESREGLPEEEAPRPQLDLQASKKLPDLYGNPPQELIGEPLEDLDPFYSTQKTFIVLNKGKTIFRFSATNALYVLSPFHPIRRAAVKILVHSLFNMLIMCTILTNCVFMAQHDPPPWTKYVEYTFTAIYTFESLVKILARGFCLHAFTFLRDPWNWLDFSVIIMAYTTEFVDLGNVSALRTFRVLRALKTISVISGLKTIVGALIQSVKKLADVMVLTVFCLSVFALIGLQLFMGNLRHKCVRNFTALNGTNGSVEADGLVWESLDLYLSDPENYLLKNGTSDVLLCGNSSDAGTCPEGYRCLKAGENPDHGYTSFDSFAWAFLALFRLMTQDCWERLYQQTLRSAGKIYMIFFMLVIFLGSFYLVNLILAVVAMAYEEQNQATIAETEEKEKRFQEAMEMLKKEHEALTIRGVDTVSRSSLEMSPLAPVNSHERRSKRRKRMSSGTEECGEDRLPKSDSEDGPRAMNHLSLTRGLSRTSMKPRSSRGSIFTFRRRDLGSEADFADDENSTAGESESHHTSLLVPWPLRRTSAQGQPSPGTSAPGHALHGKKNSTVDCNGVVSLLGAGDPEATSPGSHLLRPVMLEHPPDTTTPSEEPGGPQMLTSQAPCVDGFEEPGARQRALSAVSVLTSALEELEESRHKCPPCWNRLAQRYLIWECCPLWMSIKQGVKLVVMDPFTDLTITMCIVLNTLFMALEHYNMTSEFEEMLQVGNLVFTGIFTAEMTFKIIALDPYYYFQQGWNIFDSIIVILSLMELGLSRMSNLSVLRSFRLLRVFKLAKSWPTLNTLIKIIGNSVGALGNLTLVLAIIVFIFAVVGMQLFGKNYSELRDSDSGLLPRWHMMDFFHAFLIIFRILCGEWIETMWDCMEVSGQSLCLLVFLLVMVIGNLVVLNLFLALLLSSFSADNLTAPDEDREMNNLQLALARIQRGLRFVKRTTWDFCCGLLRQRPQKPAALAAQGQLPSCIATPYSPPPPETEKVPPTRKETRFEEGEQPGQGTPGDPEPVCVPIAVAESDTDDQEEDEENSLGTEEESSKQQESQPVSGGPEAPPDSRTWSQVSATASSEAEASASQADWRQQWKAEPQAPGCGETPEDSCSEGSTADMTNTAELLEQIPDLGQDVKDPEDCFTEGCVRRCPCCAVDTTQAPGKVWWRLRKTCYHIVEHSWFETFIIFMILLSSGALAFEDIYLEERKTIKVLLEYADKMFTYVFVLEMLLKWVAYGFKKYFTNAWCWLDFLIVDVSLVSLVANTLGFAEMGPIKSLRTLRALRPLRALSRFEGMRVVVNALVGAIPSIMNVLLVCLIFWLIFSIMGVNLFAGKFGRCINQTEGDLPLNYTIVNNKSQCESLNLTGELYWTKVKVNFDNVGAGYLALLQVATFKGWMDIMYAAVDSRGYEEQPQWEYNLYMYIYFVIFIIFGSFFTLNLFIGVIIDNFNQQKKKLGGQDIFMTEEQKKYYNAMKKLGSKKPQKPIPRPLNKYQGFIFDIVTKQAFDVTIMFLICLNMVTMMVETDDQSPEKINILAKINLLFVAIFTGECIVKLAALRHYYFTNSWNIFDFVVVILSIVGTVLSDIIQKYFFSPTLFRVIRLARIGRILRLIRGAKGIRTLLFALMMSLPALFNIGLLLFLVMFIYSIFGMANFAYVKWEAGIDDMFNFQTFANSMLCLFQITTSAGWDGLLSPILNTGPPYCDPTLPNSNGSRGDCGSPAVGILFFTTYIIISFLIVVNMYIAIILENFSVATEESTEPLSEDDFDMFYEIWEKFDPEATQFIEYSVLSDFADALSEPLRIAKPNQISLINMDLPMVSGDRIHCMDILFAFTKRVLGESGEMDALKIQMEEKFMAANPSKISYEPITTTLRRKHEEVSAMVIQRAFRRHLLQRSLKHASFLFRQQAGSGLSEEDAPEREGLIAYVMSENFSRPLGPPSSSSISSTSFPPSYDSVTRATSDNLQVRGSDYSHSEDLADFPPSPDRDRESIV
T3 sequence (Q99250 whole entry, canonical isoform): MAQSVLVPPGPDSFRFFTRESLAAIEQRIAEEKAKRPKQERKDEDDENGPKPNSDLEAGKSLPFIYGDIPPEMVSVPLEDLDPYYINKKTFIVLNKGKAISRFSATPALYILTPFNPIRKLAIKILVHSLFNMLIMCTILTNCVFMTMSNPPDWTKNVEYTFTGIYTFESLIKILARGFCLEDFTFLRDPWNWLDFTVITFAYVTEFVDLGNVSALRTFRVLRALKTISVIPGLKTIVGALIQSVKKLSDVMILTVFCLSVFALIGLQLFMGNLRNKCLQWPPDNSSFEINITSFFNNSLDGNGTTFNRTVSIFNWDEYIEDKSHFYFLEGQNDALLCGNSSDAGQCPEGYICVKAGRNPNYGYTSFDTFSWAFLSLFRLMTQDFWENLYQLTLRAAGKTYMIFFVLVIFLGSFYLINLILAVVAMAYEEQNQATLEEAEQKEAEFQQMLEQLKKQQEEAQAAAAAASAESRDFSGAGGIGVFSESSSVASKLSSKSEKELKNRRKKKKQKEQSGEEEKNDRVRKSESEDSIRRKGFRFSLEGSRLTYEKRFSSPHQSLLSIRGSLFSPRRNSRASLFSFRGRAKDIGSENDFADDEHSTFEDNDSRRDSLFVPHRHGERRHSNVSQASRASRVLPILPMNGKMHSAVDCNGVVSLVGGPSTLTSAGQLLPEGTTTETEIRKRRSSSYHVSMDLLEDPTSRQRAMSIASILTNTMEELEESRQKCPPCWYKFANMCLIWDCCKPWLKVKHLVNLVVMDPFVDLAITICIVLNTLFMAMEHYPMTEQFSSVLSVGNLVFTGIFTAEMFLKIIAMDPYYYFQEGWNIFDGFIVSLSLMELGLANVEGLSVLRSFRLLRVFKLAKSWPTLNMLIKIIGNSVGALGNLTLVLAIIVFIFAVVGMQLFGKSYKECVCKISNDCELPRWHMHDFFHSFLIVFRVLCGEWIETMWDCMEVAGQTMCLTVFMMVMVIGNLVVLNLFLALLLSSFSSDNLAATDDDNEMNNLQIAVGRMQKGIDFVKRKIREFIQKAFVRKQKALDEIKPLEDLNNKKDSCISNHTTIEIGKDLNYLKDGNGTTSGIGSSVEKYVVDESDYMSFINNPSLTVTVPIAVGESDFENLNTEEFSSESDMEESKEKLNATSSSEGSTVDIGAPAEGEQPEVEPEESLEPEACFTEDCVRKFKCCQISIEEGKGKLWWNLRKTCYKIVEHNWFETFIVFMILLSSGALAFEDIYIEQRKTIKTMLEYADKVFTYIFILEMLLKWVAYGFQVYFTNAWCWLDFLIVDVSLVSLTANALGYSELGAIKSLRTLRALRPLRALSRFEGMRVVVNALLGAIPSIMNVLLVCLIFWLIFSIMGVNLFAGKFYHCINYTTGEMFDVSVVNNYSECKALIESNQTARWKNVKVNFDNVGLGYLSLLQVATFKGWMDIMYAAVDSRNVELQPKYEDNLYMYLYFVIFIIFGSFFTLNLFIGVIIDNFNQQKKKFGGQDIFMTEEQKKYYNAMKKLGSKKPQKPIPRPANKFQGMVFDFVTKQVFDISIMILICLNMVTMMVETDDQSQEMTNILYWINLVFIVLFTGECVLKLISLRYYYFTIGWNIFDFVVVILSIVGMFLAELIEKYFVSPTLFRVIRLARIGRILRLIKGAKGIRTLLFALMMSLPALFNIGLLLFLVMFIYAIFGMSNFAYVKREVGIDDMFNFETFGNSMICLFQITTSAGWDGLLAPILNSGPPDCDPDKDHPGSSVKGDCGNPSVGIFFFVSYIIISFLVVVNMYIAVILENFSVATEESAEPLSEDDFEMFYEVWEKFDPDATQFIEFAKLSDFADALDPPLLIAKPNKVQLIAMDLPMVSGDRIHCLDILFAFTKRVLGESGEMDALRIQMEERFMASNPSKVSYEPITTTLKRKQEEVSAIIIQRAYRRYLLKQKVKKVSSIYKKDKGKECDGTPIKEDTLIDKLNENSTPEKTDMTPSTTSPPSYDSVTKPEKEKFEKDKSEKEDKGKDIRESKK
Sequence of hERG potassium channel (Q12809 whole entry): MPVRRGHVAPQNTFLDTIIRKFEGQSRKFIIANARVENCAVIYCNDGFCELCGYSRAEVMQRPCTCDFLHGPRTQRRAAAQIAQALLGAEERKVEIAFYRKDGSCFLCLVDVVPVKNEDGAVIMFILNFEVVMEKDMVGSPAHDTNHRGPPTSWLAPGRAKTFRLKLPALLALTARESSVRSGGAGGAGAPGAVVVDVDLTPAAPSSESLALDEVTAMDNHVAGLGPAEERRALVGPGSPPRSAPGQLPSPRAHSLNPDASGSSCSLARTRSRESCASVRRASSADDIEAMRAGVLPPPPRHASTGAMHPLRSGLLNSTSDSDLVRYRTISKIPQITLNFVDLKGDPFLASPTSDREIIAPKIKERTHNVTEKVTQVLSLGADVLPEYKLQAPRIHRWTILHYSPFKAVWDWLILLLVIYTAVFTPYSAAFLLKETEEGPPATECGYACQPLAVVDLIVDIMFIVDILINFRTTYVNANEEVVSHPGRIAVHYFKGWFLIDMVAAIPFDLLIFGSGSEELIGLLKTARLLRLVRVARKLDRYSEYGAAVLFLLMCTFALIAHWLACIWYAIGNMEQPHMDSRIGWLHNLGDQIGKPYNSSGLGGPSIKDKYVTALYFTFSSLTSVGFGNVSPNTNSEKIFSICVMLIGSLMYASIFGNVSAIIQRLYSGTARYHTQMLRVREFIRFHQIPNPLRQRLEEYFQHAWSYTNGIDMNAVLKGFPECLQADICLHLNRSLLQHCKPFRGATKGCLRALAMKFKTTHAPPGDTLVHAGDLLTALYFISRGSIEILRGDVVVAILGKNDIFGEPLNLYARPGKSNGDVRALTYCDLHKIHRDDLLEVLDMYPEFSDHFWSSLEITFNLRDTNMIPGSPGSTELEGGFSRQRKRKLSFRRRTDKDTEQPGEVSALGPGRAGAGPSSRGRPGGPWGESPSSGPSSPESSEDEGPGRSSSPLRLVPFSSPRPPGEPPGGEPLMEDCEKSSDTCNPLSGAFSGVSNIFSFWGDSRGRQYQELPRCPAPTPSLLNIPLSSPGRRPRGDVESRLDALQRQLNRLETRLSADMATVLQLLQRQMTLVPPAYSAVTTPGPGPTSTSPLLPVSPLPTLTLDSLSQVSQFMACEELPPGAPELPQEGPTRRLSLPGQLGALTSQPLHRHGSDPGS

For the compound `O=C1c2cc(-c3ccc(OC(F)(F)F)cc3)ccc2OCCN1CC1CC1` [II-10, 4-(cyclopropylmethyl)-7-(4-(trifluoromethoxy)phenyl)-3,4-dihydrobenzo[f][1,4]oxazepin-5(2H)-one], the inhibition at 1 µM was 43% in data set [1] (setting [5]); 43% in data set [1] (setting [6]); -4% in data set [2]; 9% in data set [3]; 9% in data set [4] (setting [7]); 2% in data set [4] (setting [8]).

Consider `N#Cc1cccc(CN2CCOc3ccc(-c4ccc(OC(F)(F)F)cc4)cc3C2=O)n1` [II-14, 6-((5-oxo-7-(4-(trifluoromethoxy)phenyl)-2,3-dihydrobenzo[f][1,4]oxazepin-4(5H)-yl)methyl)picolinonitrile], for which the inhibition at 1 µM in data set [1] (setting [5]) was found to be 47%; in data set [1] (setting [6]), 47%; in data set [2] it was 16%; in data set [3], 19%; in data set [4] (setting [7]), 7%; in data set [4] (setting [8]) it was 6%.

As to `Cc1cccc(CN2CCOc3ccc(-c4ccc(OC(F)(F)F)cc4)cc3C2=O)n1` [II-17, 4-((6-methylpyridin-2-yl)methyl)-7-(4-(trifluoromethoxy)phenyl)-3,4-dihydrobenzo[f][1,4]oxazepin-5(2H)-one], the inhibition at 1 µM came out at 59% in data set [1] (setting [5]), 59% in data set [1] (setting [6]), 47% in data set [4] (setting [7]) and 46% in data set [4] (setting [8]). In addition, at hERG potassium channel, the hERG is under 10.

With `Cc1cccnc1CN1CCOc2ccc(-c3ccc(OC(F)(F)F)cc3)cc2C1=O` [II-75, 4-((3-methylpyridin-2-yl)methyl)-7-(4-(trifluoromethoxy)phenyl)-3,4-dihydrobenzo[f][1,4]oxazepin-5(2H)-one], the inhibition at 1 µM in data set [1] (setting [5]) came out at 68%; in data set [1] (setting [6]), 68%; in data set [2] it was 35%; in data set [3], 52%; in data set [4] (setting [7]), 45%; in data set [4] (setting [8]) it was 59%.

As for `CCc1ccc(-c2ccc3c(c2)C(=O)N(Cc2ncccn2)CCO3)cc1` [II-91, 7-(4-ethylphenyl)-4-(pyrimidin-2-ylmethyl)-3,4-dihydrobenzo[f][1,4]oxazepin-5(2H)-one], the inhibition at 1 µM in data set [1] (setting [5]) was 54%; in data set [1] (setting [6]), 54%; in data set [2], -9%; in data set [3], -3%; in data set [4] (setting [7]) it was 8%; in data set [4] (setting [8]), 11%.

Take `Cc1ccnc(CN2CCOc3ccc(-c4ccc(OC(F)(F)F)cc4)cc3C2=O)n1` [II-138, 4-((4-methylpyrimidin-2-yl)methyl)-7-(4-(trifluoromethoxy)phenyl)-3,4-dihydrobenzo[f][1,4]oxazepin-5(2H)-one]: the inhibition at 1 µM was 47% in data set [1] (setting [5]); 47% in data set [1] (setting [6]); 21% in data set [2]; 40% in data set [3]; 16% in data set [4] (setting [7]); 23% in data set [4] (setting [8]).

`O=C1c2cc(-c3ccc(OC(F)(F)F)cc3)ncc2OCCN1Cc1ccccc1` [XII-1, 4-benzyl-7-(4-(trifluoromethoxy)phenyl)-3,4-dihydropyrido[4,3-f][1,4]oxazepin-5(2H)-one]: the inhibition at 1 µM in data set [1] (setting [5]) was 53%; in data set [1] (setting [6]), 53%; in data set [2] it was -1%; in data set [3] it was -4%; in data set [4] (setting [7]), 25%; in data set [4] (setting [8]), 21%.
